{"source": "patent US20140371165A1", "about": "“Identification of NSC23925 Isomers to Reverse Multidrug Resistance in Human Cancers” (priority 2012, published 2014)", "key": {"MCF-7adr": {"test_system": "MCF-7adr", "test": "M30-Apoptosense ELISA apoptosis assay in MCF-7adr", "type": "cell-based, human", "details": "NSC23925b 1 μM with doxorubicin 0.5 μM, 72 hours", "procedure": "Apoptosis was evaluated using the M30-Apoptosense ELISA assay kit (Peviva AB, Bromma, Sweden) according to the manufacturer's instructions. For the doxorubicin and NSC23925b treatment, MCF-7adr or SW480TR cells were seeded at 8,000 cells/per well in a 96-well plate for 24 hours before treatment. The cells were then treated with 0.5 μM of doxorubicin, 1 μM of NSC23925b, or a combination of the two drugs for an additional 72 hours. The cells were then lysed by an additional […] of 10% NP40 per well, following the manufacturer's instructions for apoptosis assay.\nThe effect of NSC23925b on the doxorubicin induction of apoptosis was assessed in MCF-7adr or SW480TR. cell lines. Cells were treated with either doxorubicin (0.5 μM) alone, NSC23925b (1 μM) alone, or a combination of doxorubicin and NSC23925b for 72 hours. Apoptosis was scored using the M30-Apoptosense ELISA assay."}, "Pgp": {"target": "T1, Pgp (Homo sapiens, UniProt P08183)", "T1 construct": "multidrug resistant cells expressing high levels of Pgp rapidly extrude non-fluorescent calcein AM from the plasma membrane; endogenous in cells; host or cells: MCF-7adr and SW480TR drug-resistant cells", "T1 sequence (P08183 whole entry)": "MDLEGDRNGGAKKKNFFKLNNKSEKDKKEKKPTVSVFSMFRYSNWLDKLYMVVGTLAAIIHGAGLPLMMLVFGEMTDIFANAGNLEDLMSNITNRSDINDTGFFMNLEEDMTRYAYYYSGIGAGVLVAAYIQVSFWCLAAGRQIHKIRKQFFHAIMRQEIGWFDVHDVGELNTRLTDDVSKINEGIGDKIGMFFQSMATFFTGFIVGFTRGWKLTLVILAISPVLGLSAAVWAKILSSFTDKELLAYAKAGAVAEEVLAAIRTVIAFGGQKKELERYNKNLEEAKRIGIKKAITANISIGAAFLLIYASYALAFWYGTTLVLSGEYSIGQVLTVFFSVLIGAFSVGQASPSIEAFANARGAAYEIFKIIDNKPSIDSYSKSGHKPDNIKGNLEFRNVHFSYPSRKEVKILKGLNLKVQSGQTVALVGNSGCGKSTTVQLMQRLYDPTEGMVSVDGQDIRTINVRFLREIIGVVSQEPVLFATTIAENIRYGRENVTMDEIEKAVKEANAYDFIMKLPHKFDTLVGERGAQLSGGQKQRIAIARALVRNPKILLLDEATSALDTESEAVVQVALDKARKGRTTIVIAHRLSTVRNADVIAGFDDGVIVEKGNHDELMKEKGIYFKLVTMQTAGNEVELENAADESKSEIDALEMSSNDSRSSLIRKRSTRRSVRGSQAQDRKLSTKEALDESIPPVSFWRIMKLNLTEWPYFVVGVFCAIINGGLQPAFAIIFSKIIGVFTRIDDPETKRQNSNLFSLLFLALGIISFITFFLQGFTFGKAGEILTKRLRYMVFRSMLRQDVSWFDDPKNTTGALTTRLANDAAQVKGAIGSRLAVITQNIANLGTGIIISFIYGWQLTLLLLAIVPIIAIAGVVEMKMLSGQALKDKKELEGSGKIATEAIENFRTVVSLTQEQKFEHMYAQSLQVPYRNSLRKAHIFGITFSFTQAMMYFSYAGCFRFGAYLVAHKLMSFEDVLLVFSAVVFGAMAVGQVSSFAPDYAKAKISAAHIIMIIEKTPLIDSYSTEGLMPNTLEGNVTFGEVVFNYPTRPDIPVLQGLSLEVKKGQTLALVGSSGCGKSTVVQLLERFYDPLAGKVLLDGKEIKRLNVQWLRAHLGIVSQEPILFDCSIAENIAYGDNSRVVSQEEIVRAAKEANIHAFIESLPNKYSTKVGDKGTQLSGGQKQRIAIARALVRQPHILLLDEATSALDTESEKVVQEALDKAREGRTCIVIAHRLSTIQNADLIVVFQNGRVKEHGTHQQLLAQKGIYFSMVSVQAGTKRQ", "test": "Calcein AM drug efflux fluorescence microscopy assay (Vybrant multi-drug resistance kit)", "type": "cell-based", "description": "The Vybrant™ multi-drug resistance assay kit (Invitrogen/Molecular Probes) was used to measure drug efflux properties of different resistant cell lines. This assay utilizes the fluorogenic dye calcein acetoxymethyl ester (calcein AM) as a substrate for efflux activity of Pgp or other membrane pump ABC proteins. Calcein AM is taken up by cells and hydrolyzed by cytoplasmic esterases to fluorescent calcein. Calcein […] is well retained in the cytosol. However, multidrug resistant cells expressing high levels of Pgp rapidly extrude non-fluorescent calcein AM from the plasma membrane, reducing accumulation of fluorescent calcein in the cytosol. Studies were carried out as described. In brief, drug resistant cells (5,000 cells per well) were cultured in 96-well plate for 24 hours. Triplicated cultures of cells were treated with different concentrations of NSC23925b for one hour and then incubated in calcein AM in 100 μl total volume. After 30 minutes, images were acquired by Nikon Eclipse Ti-U fluorescence microscope (Nikon Corp.) equipped with a SPOT RT digital camera (Diagnostic Instruments, Inc., Sterling Heights, Mich.).\nThe effect of NSC23925b on the uptake and efflux of calcein AM in MCF-7adr and SW480TR was determined. […] The calcein-AM assay was optimized and performed using the Vybrant Multidrug Resistance kit. Cells were seeded at 50,000 cells/well (100 μl of culture medium) in 96-well plate and incubated for 24 hours. MCF-7adr cells in triplicate were treated with NSC23925b for one hour and then incubated in calcein AM for 30 minutes. The cell fluorescence images were acquired by a fluorescence microscope. NSC23925b has a prominent effect on the accumulation of calcein AM in these cells starting at a concentration as low as 1 nM."}, "SW480TR": {"test_system": "SW480TR", "test": "MTT cytotoxicity assay and reversal of MDR in SW480TR", "type": "cell-based, human", "description": "A panel of parental cancer cell line and their daughter resistant cell lines, displaying MDR phenotype were used in this study. Human ovarian cancer cell line SKOV-3, breast cancer cell line MCF-7 and colon cancer cell line SW480, the osteosarcoma cell line U-2OS, KHOS, uterine sarcoma cell line MESSA and its doxorubicin selected drug resistant cell line MESSA/Dx5, non-small cell lung cancer cell line H-69 and its doxorubicin selected drug resistant cell line H-69AR (overexpress MRP1) were obtained from the ATCC (Rockville, Md.). Dr. Efstathios Gonos (Institute of Biological Research & Biotechnology, Athens, Greece) provided the doxorubicin resistant U-2OS R2 (referred in the text below as U-2OSDR), KHOS R2 cell lines. Dr. Erasmus Schneider (Wadsworth Center, Albany) provided the mitoxantrane resistant breast cancer MCF-7/MX (overexpress BCRP) cell line. All the cell lines were cultured in RPMI 1640 (Invitrogen, Carlsbad, Calif.) supplemented with 10% fetal bovine serum, 100-units/ml penicillin and 100 μg/ml streptomycin (Invitrogen). Cells were incubated at 37° C. in 5% CO2-95% air atmosphere and passaged when near confluent monolayers were achieved using 2% trypsin-EDTA solution. […] The fresh chemotherapy drugs were obtained from the pharmacy at the Massachusetts General Hospital and stored at −20° C.\nTo evaluate for reversal of Pgp-mediated MDR, SKOV-3TR, MCF-7adr and SW480TR cell lines were seeded into 96-well tissue culture plate at 2,000 cells per well with varying concentrations of chemotherapy drugs and NSC23925b for 6 days. Cell proliferation IC50 (concentration required for 50% inhibition) and MDR reversal IC50 were determined from dose-response curves carried out in triplicate in 96-well plate. Fold of reverse resistance for individual drugs were defined as the IC50 of MDR cells without NSC23925b treatment divided by the IC50 of MDR cells treated with NSC23925b. […] Drug cytotoxicity was assessed in vitro using the MTT assay as previously described. […] Response curves were fitted with use of GraphPad PRISM 4 software (GraphPad Software).\nMCF-7adr and SW480TR cells were treated with paclitaxel (FIGS. 2A-B), doxorubicin (FIGS. 2C-D) or mitoxantrane (FIGS. 2E-F) and NSC23925b in RPMI1640 complete media at the indicated concentrations. The relative sensitivity of each line to the indicated drugs was determined by MTT analysis 6 days post-treatment."}}, "note": "Counter-ions that a name gives are not always drawn.", "data": [{"smiles": "COc1ccc(-c2cc([C@H](O)[C@H]3CCCCN3)c3ccccc3n2)cc1", "note": "[NSC23925b, (2-(4-methoxyphenyl)quinolin-4-yl)(piperidin-2-yl)methanol hydrochloride]", "values": [{"measurement": "cell death / apoptosis, combination versus either drug alone", "setting": "MCF-7adr", "value": "significantly greater cell death"}, {"measurement": "lowest concentration with prominent effect on accumulation of calcein AM", "setting": "Pgp; MCF-7adr and SW480TR cells", "value": 1, "unit": "nM"}, {"measurement": "intracellular accumulation of calcein AM", "setting": "Pgp; MCF-7adr and SW480TR, 1 h pretreatment, calcein AM 30 minutes", "value": "increase intracellular accumulation of calcein AM in these cell lines in a dose-dependent manner"}, {"measurement": "near maximal reversal of accumulation deficit", "setting": "Pgp; calcein AM, MCF-7adr and SW480TR cells", "value": 500, "unit": "nM"}, {"measurement": "EC50", "setting": "Pgp; calcein AM, MCF-7adr and SW480TR cells, read-out: Half-maximal reversal of accumulation deficit", "value": 100, "unit": "nM"}, {"measurement": "fold-reversal of drug resistance", "setting": "SW480TR; Doxorubicin, NSC23925b 0.1 μM", "value": 1.7, "unit": "fold"}, {"measurement": "fold-reversal of drug resistance", "setting": "SW480TR; Doxorubicin, NSC23925b 0.5 μM", "value": 3, "unit": "fold"}, {"measurement": "fold-reversal of drug resistance", "setting": "SW480TR; Doxorubicin, NSC23925b 1 μM", "value": 8, "unit": "fold"}, {"measurement": "reverse paclitaxel, doxorubicin, and mitoxantrane resistance", "setting": "SW480TR; MTT 6 days post-treatment", "value": "able to reverse"}, {"measurement": "fold-reversal of drug resistance", "setting": "SW480TR; Mitoxantrane, NSC23925b 0.1 μM", "value": 1.2, "unit": "fold"}, {"measurement": "fold-reversal of drug resistance", "setting": "SW480TR; Mitoxantrane, NSC23925b 0.5 μM", "value": 3, "unit": "fold"}, {"measurement": "fold-reversal of drug resistance", "setting": "SW480TR; Mitoxantrane, NSC23925b 1 μM", "value": 14, "unit": "fold"}, {"measurement": "fold-reversal of drug resistance", "setting": "SW480TR; Paclitaxel, NSC23925b 0.1 μM", "value": 1.3, "unit": "fold"}, {"measurement": "fold-reversal of drug resistance", "setting": "SW480TR; Paclitaxel, NSC23925b 0.5 μM", "value": 8, "unit": "fold"}, {"measurement": "fold-reversal of drug resistance", "setting": "SW480TR; Paclitaxel, NSC23925b 1 μM", "value": 13, "unit": "fold"}]}]}
